Patent US6495568B1, “Hydroxamic acid derivatives as matrix metalloprotease (MMP) inhibitors” (Warner-Lambert Company, priority 1997, dated 2002)

`CCCCC(C(=O)NO)S(=O)(=O)N1CC=C(c2ccc(-c3ccccc3)cc2)CC1` (racemic) [Example 13, N-Hydroxy-2(R,S)-[4-(4-phenylphenyl)-1,2,3,6-tetrahydropyridin-1-ylsulphonyl]hexanamide] gave a melting point of 186 to 189 °C. For `C=C(C)CC(C(=O)NO)S(=O)(=O)N1CC=C(c2ccc(-c3ccccc3)cc2)CC1` (racemic) [Example 14, N-Hydroxy-4-methyl-2(R,S)-[4-(4-phenylphenyl)-1,2,3,6-tetrahydropyridin-1-ylsulphonyl]pent-4-enamide], the melting point was 170 to 171 °C. `COCCC(C(=O)NO)S(=O)(=O)N1CC=C(c2ccc(-c3ccccc3)c(C)c2)CC1` (racemic) [Example 48, N-Hydroxy-4-methoxy-2(R,S)-[4-(3-methyl-4-phenylphenyl)-1,2,3,6-tetrahydropyridin-1-ylsulphonyl]butanamide] gave a melting point of 135 to 136 °C. Compound `O=C(NO)C(Cc1ccccc1)S(=O)(=O)N1CC=C(c2ccc(-c3ccccc3)cc2)CC1` (racemic) [Example 53, N-Hydroxy-3-phenyl-2(R,S)-[4-(4-phenylphenyl)-1,2,3,6-tetrahydropyridin-1-ylsulphonyl]propanamide] has a melting point of 202 to 205 °C. Work on `O=C(CS(=O)(=O)N1CC=C(c2ccc(-c3ccccc3)cc2)CC1)NO` [Example 1, N-Hydroxy-2-[4-(4-phenylphenyl)-1,2,3,6-tetrahydropyridin-1-ylsulphonyl]acetamide] yielded a melting point of 216 to 218 °C. For `O=C(CS(=O)(=O)N1CC=C(c2ccccc2)CC1)NO` [Example 4, N-Hydroxy-2-(4-phenyl-1,2,3,6-tetrahydropyridin-1-ylsulphonyl)acetamide], the melting point was 175 to 176 °C. With `O=C(CS(=O)(=O)N1CCC(c2ccccc2)CC1)NO` [Example 5, N-Hydroxy-2-(4-phenylpiperidin-1-ylsulphonyl)acetamide] the melting point was 185 to 187 °C. Work on `O=C(CS(=O)(=O)N1CCC(Cc2ccccc2)CC1)NO` [Example 6, N-Hydroxy-2-(4-benzylpiperidin-1-ylsulphonyl)acetamide] yielded a melting point of 132 to 135 °C. For `COc1cc(C2=CCN(S(=O)(=O)CC(=O)NO)CC2)ccc1-c1ccccc1` [Example 18, N-Hydroxy-2-[4-(3-methoxy-4-phenylphenyl)-1,2,3,6-tetrahydropyridin-1-ylsulphonyl]acetamide], the melting point was 175 to 177 °C. For `COc1cc(C2=CCN(S(=O)(=O)C(C)(C)C(=O)NO)CC2)ccc1-c1ccccc1` [Example 19, N-Hydroxy-2-[4-(3-methoxy-4-phenylphenyl)-1,2,3,6-tetrahydropyridin-1-ylsulphonyl]-2-methylpropanamide], the melting point was 156 to 158 °C. `O=C(CS(=O)(=O)N1CC=C(c2ccc(-c3ccccc3)c(F)c2)CC1)NO` [Example 20, N-Hydroxy-2-[4-(3-fluoro-4-phenylphenyl)-1,2,3,6-tetrahydropyridin-1-ylsulphonyl]acetamide] showed a melting point of 184 to 188 °C. `CCOc1cccc(-c2ccc(C3=CCN(S(=O)(=O)CC(=O)NO)CC3)cc2)c1` [Example 21, N-Hydroxy-2-{4-[4-(3-ethoxyphenyl)phenyl]-1,2,3,6-tetrahydropyridin-1-ylsulphonyl}acetamide] gave a melting point of 168 to 170 °C. `COc1cccc(-c2ccc(C3=CCN(S(=O)(=O)CC(=O)NO)CC3)cc2C)c1` [Example 22, N-Hydroxy-2-{4-[4-(3-methoxyphenyl)-3-methylphenyl]-1,2,3,6-tetrahydropyridin-1-ylsulphonyl}acetamide] gave a melting point of 162 to 165 °C. `CCc1cccc(-c2ccc(C3=CCN(S(=O)(=O)CC(=O)NO)CC3)cc2C)c1` [Example 23, N-Hydroxy-2-{4-[4-(3-ethylphenyl)-3-methylphenyl]-1,2,3,6-tetrahydropyridin-1-ylsulphonyl}acetamide] showed a melting point of 151 to 154 °C. Work on `COc1cccc(-c2ccc(C3CCN(S(=O)(=O)C(C)(C)C(=O)NO)CC3)cc2OC)c1` [Example 26, N-Hydroxy-2-{4-[3-methoxy-4-(3-methoxyphenyl)phenyl]piperidin-1-ylsulphonyl}-2-methylpropanamide] yielded a melting point of 161 to 163 °C. `CCOc1cccc(-c2ccc(C3CCN(S(=O)(=O)C(C)(C)C(=O)NO)CC3)cc2OC)c1` [Example 27, N-Hydroxy-2-{4-[4(3-ethoxyphenyl)-3-methoxyphenyl]piperidin-1-ylsulphonyl}-2-methylpropanamide] gave a melting point of 134 to 136 °C. Work on `CCOc1cccc(-c2ccc(C3=CCN(S(=O)(=O)C(C)(C)C(=O)NO)CC3)cc2C)c1` [Example 30, N-Hydroxy-2-{4-[4-(3-ethoxyphenyl)-3-methylphenyl]-1,2,3,6-tetrahydropyridin-1-ylsulphonyl}2-methylpropanamide] yielded a melting point of 116 to 118 °C. With `CCOc1cccc(-c2ccc(C3CCN(S(=O)(=O)CC(=O)NO)CC3)cc2C)c1` [Example 31, N-Hydroxy-2-{4-[4-(3-ethoxyphenyl)-3-methylphenyl]piperidin-1-ylsulphonyl}acetamide] the melting point was 179 to 180 °C. For `CCOc1cccc(-c2ccc(C3CCN(S(=O)(=O)C(C)(C)C(=O)NO)CC3)cc2C)c1` [Example 32, N-Hydroxy-2-{4-[4-(3-ethoxyphenyl)-3-methylphenyl]piperidin-1-ylsulphonyl}-2-methylpropanamide], the melting point was 172 to 174 °C. Compound `Cc1cc(C2=CCN(S(=O)(=O)CC(=O)NO)CC2)ccc1-c1cccnc1` [Example 34, N-Hydroxy-2-{4-[3-methyl-4-(pyridin-3-yl)phenyl]-1,2,3,6-tetrahydropyridin-1-ylsulphonyl}acetamide] has a melting point of 132 to 136 °C. `Cc1cc(C2=CCN(S(=O)(=O)CC(=O)NO)CC2)ccc1-c1cccc(CO)c1` [Example 39, N-Hydroxy-2-{4-[4-(3-hydroxymethylphenyl)-3-methylphenyl]-1,2,3,6-tetrahydropyridin-1-ylsulphonyl}acetamide] gave a melting point of 174 to 176 °C. Compound `COCc1cccc(-c2ccc(C3=CCN(S(=O)(=O)CC(=O)NO)CC3)cc2C)c1` [Example 42, N-Hydroxy-2-{4-[4-(3-methoxymethylphenyl)-3-methylphenyl]-1,2,3,6-tetrahydropyridin-1-ylsulphonyl}acetamide] has a melting point of 151 to 153 °C. For `COCCOc1cccc(-c2ccc(C3=CCN(S(=O)(=O)CC(=O)NO)CC3)cc2C)c1` [Example 43, N-Hydroxy-2-{4-[4-(3-[2-methoxyethoxy]phenyl)-3-methylphenyl]-1,2,3,6-tetrahydropyridin-1-ylsulphonyl}acetamide], the melting point was 158 to 160 °C. In the case of `Cc1cc(C2=CCN(S(=O)(=O)CC(=O)NO)CC2)ccc1-c1cccc(C(F)(F)F)c1` [Example 45, N-Hydroxy-2-{4[3-methyl-4-(3-trifluoromethylphenyl)phenyl]-1,2,3,6-tetrahydropyridin-1-ylsulphonyl}acetamide], the melting point is reported as 168 to 170 °C. `O=C(CS(=O)(=O)N1CCC(c2ccc(Oc3ccccc3)cc2)CC1)NO` [Example 46, N-Hydroxy-2-[4-(4-phenoxyphenyl)piperidin-1-ylsulphonyl]acetamide] showed a melting point of 176 to 179 °C. `COCCOc1cccc(-c2ccc(C3CCN(S(=O)(=O)C(C)(C)C(=O)NO)CC3)cc2C)c1` [Example 47, N-Hydroxy-2-{4-[4-(3-[2-methoxyethoxy]phenyl)-3-methylphenyl]piperidin-1-ylsulphonyl}-2-methylpropanamide] showed a melting point of 155 to 156 °C. `Cc1cc(C2=CCN(S(=O)(=O)CC(=O)NO)CC2)ccc1-c1ccc(F)c(Cl)c1` [Example 55, N-Hydroxy-2-{4-[4-(3chloro-4-fluorophenyl)-3-methylphenyl]-1,2,3,6-tetrahydropyridin-1-ylsulphonyl}acetamide] showed a melting point of 181 to 183 °C. `Cc1cc(C2=CCN(S(=O)(=O)CC(=O)NO)CC2)ccc1-c1ccccc1F` [Example 57, N-Hydroxy-2-{4-[4-(2-fluorophenyl)-3-methylphenyl]-1,2,3,6-tetrahydropyridin-1-ylsulphonyl}acetamide] showed a melting point of 160 to 163 °C. `COc1ccc(-c2ccc(C3=CCN(S(=O)(=O)CC(=O)NO)CC3)cc2C)cc1OC` [Example 58, N-Hydroxy-2-{4-[4-(3,4-dimethoxyphenyl)-3-methylphenyl]-1,2,3,6-tetrahydropyridin-1-ylsulphonyl}acetamide] showed a melting point of 172 to 174 °C. Work on `Cc1cc(C2=CCN(S(=O)(=O)CC(=O)NO)CC2)ccc1-c1ccc2c(c1)CCC2` [Example 59, N-Hydroxy-2-{4-[4-(indan-5-yl)-3-methylphenyl]-1,2,3,6-tetrahydropyridin-1-ylsulphonyl}acetamide] yielded a melting point of 149 to 152 °C. For `Cc1cc(C2=CCN(S(=O)(=O)CC(=O)NO)CC2)ccc1-c1cccc(OC(F)(F)F)c1` [Example 60, N-Hydroxy-2-{4-[3-methyl-4-(3-trifluoromethoxyphenyl)phenyl]-1,2,3,6-tetrahydropyridin-1-ylsulphonyl}acetamide], the melting point was 154 °C. In the case of `Cc1cc(C2CCN(S(=O)(=O)C(C)(C)C(=O)NO)CC2)ccc1-c1ccc2c(c1)OC(C)(C)O2` [Example 62, N-Hydroxy-2-{4-[4-(2,2-dimethyl-1,3-benzodioxol-5-yl)-3-methylphenyl]-piperidin-1-ylsulphonyl}-2-methylpropionamide], the melting point is reported as 184 to 186 °C. Work on `Cc1cc(C2CCN(S(=O)(=O)C(C)(C)C(=O)NO)CC2)ccc1-c1ccc2c(c1)nc(C)n2C` [Example 63, N-Hydroxy-2-{4-[4-(1,2-dimethylbenzimidazol-5-yl)-3-methylphenyl]piperidin-1-ylsulphonyl]-2-methylpropionamide] yielded a melting point of 213 to 215 °C.
